Test results from US20160279207A1, “TARGETING GDF6 AND BMP SIGNALING FOR ANTI-MELANOMA THERAPY” (University of Massachusetts, priority 2015, published 2016).
Entries after “also recorded” stand apart in the source; their conditions may differ.

How the values were obtained:
A375 melanoma cells [1] = assay: Clonogenic growth (colony formation) assay; assay type: cell-based, human; settings: for colonies in clonogenic growth assay after shRNA treatment: A375 cells, crystal violet staining; for colonies in clonogenic growth assay after shRNA treatment / colonies in clonogenic growth assay, empty vector-transfected cells: vs shGFP; for colonies in clonogenic growth assay, cells expressing SMAD1 phosphomimic (SMAD1DVD): SMAD1DVD cells treated with shRNA; for colonies in clonogenic growth assay, empty vector-transfected cells: empty vector cells treated with shRNA
Method: For growth curves 50,000 live cells were seeded per well in a 6-well tissue culture plate on day 0. The numbers of live cells were calculated every day using an automated cell counter (Nexcelom Bioscience Cellometer Auto T4) following standard procedures. All assays were performed with technical replicates. For clonogenic assays, 3,000 live cells were seeded in a 10 cm tissue culture plate. […] ImageJ was used to quantify the number of colonies. In assays with DMH1 treatment, control or DMH1-containing media was replaced every other day. For soft agar assays a 0.5% bottom layer (1:1 with 1% agar and 2X DMEM with 20% FBS) and a 0.3% top layer (1:1 with 0.6% agar and 2× DMEM with 20% FBS) were used. 3,000 live cells per well of a 6-well tissue culture plate were added in the top layer. Media was added initially then replaced every 3 days. After 3 weeks, colonies were stained with nitroblue tetrazolium chloride overnight at 37° C. Once stained, individual wells were photographed, and ImageJ was used to count the number of colonies. All these assays were done in triplicate, and experiments were repeated at least twice. A representative image of each has been shown.

SMAD1 = assay: Western blot of SMAD1 protein after shRNA knockdown; assay type: cell-based, human; settings: melanoma cells, vs shGFP control
Method: (§1) Lentiviral infections were performed as described previously (C. J. Ceol et al., The histone methyltransferase SETDB 1 is recurrently amplified in melanoma and accelerates its onset. (Nature 471, 513-517 (2011)). For stable gene knockdowns, we used pLKO-1 lentiviral vectors to deliver short hairpin sequences (shRNAs) (obtained from the RNAi Consortium (TRC)/Broad Institute through the UMMS RNAi core facility) specific for GDF6 (GDF6.1: TRCN0000141818, target sequence: […] (SEQ ID NO:10); GDF6.2: TRCN0000140097, target sequence: […] (SEQ ID NO:11)) or SMAD1 (SMAD1.1: TRCN0000021781, target sequence: […] (SEQ ID NO:12); SMAD1.2: TRCN0000021782, target sequence: […] (SEQ ID NO:13)) or EGFP (TRCN0000072181, target sequence: […] (SEQ ID NO:14)). Virus was made using a second generation lentiviral packaging system in HEK293T cells and titrated using a p24 ELISA kit (Clontech). Cells were infected with virus at a multiplicity of infection of 2.5 with 8 μg/ml polybrene followed by puromycin selection (2 μm/ml) for 2 days in appropriate media. For overexpression, we used Gateway cloning (Life Technologies) to insert the GDF6 ORF (GE life sciences) or SMAD1DVD ORF (provided by Takenobu Katagiri) into the pLenti CMV Hygro DEST (w117-1) vector (provided by Paul Kaufman). Infection and monitoring was performed as described (C. J. Ceol et al., The histone methyltransferase SETDB 1 is recurrently amplified in melanoma and accelerates its onset. (Nature 471, 513-517 (2011)), except that selection was done with 300 ug/ml hygromycin for 10 days.
Protein extracts were prepared as previously described (S. D. Epstein L B, Hunte-McDonough B, harris C A, Cytokines: A pratical approach (Balkwill F R., ed). 81-93 (1991)). Extracts were separated on 12% SDS-PAGE gels. Blots were probed with primary antibodies (GDF6 (Sigma PRS4691; 1:1000), phospho-SMAD1/5/8 (Cell Signaling 13820; 1:1000), SMAD1 (Cell Signaling 9743; 1:500), Total SMAD1/5/8 (Santa Cruz sc-6031-R; 1:1000), FLAG (Sigma F3165, 1:2000), GAPDH (Abcam 8245; 1:2000)) overnight at 4° C., washed five times in TBS plus 0.1% Tween (TBST) and then incubated with the appropriate HRP-conjugated secondary antibody (Jackson Labs) for 1 hour at room temperature. Membranes were washed five times in TBST and visualized on autoradiography film after incubating with ECL reagent (Supersignal West Pico or Supersignal West Femto; Thermo Scientific).

A375 melanoma cells [2] = assay: Apoptosis markers: Annexin5 staining and Caspase 3/7 cleavage; assay type: cell-based, human; settings: vs shGFP
Method: A375 melanoma cells after knockdown of GDF6 or SMAD1 or EGFP were stained for Annexin V and 7-AAD (BD Pharmingen PR Annexin V Apoptosis Detection kit) as per manufacturer's instructions, followed by flow cytometry using a FACSCalibur instrument (BD Biosciences). Caspase3/7 activity was measured using the Caspase-Glo 3/7 assay (Promega) as per manufacturer's instructions.

GDF6 = assay: Western blot of GDF6 protein after shRNA knockdown; assay type: cell-based, human; settings: melanoma cells, vs shGFP control
Method: as §1, with “Infection and monitoring was performed as described (C. J. Ceol et al., The histone methyltransferase SETDB 1 is recurrently amplified in melanoma and accelerates its onset. (Nature 471, 513-517 (2011)), except that selection was done with 300 ug/ml hygromycin for 10 days.” left out

A375 melanoma cells [3] = assay: A375 melanoma xenograft in nude mice, tumor volume; assay type: in vivo, mouse; settings: for tumor formation (tumor volume) of shRNA-treated cells xenotransplanted into mice: A375 cells treated with shRNA before transplantation, vs shGFP/shEGFP; for xenograft tumor formation, SMAD1 phosphomimic cells: SMAD1DVD cells with GDF6 knocked down; for xenograft tumor formation, empty vector-transfected cells: empty vector cells with GDF6 knocked down
Method: An art-accepted model to test for an agent's effects on melanoma is that of using immunocompromised (“nude”) mice which are then injected subcutaneously with melanoma cells, and then concomitant with injection of the cells, sometime after injection, and/or after tumor establishment, the test agent is appropriately administered (e.g., intravenously, peritoneally, orally, etc.). Control and treated animals are monitored in part for tumor growth, tumor stabilization, and tumor regression (see for example, Yang et al. 2010. Cancer Res., 70:5518-5527 and Bollag et al. 2010. Nature. 467:596-599).
All animal protocols were approved by the UMMS Institution Animal Care and Use Committee (A-2016, A-2171). Mice were randomly allocated to individual experimental groups. No blinding was done as animal groups were identified by tagging and cage labeling. Animals were excluded, according to pre-established criteria, if the tumor volume reached >1,000 mm^3; if tumor size or location affected the mobility or general health of animal, the animal was euthanized and excluded from the experiment or the complete experiment was terminated. A375 cells stably expressing an EGFP or GDF6 or SMAD1 shRNA and/or empty vector or GDF6-expressing vector or SMAD1DVD-overexpressing vector were subcutaneously injected into the flanks of 6-8-week-old BALB/c nu/nu female mice (Taconic Farms) to produce orthotopic primary tumor. Primary tumor growth was monitored every 3 days with calipers, and the tumor volume was calculated as described previously (C. Gazin, N. Wajapeyee, S. Gobeil, C. M. Virbasius, M. R. Green, An elaborate pathway required for Ras-mediated epigenetic silencing. Nature 449, 1073-1077 (2007)). For GDF6 knockdown, SMAD1 knockdown and epistasis experiments, 1×10^7 live cells were injected. For GDF6 overexpression experiments, 1×10^6 live cells were injected. For GDF6 overexpression and GDF6 knockdowns, a representative of two independent experiments (n=3 animals per experiment) is shown. For DMH1 drug experiments, 1×10^6 live A375 cells were subcutaneously injected in the flanks of BALB/c nu/nu female mice. Beginning on the day cells were injected, mice were injected intraperitoneally with vehicle 12.5% 2-hydroxypropyl-β-cyclodextrin or 25 mg/kg DMH1 in vehicle every other day. The growth of the tumor was monitored as described above. This experiment was repeated twice and the weighted average of both experiments (n=8 total) is represented.

MeWo melanoma cells = assay: Rescue of GDF6-knockdown melanoma cells by recombinant GDF6 in culture media; assay type: cell-based, human; settings: cells treated with shRNAs targeting GDF6
Description: To determine if secreted GDF6 can facilitate the growth of melanoma cells, we knocked down GDF6 using shRNAs and then treated these knockdown cells with recombinant GDF6 protein (FIG. 10).

shSMAD1-2: shRNA targeting SMAD1 (SEQ ID NO:5); SMAD1.2 TRCN0000021782 targets SEQ ID NO:13 (GCCGATGGACACAAACATGAT; the letters are possibly those of the target site; listed as Homo sapiens)
colonies in clonogenic growth assay after shRNA treatment (A375 melanoma cells [1]): far fewer colonies
SMAD1 protein expression after shRNA treatment (SMAD1): knockdown of SMAD1 protein
SMAD1 protein expression after shRNA treatment (SMAD1; listed as shSMAD1#2): significantly decreased; also recorded: decreases expression of SMAD1 protein
apoptosis (Annexin5 staining, Caspase 3/7 cleavage) (A375 melanoma cells [2]): elevated apoptosis relative to control cells

shGDF6#1: shRNA targeting GDF6 (SEQ ID NO:1); GDF6.1 TRCN0000141818 targets SEQ ID NO:10 (GCCAAGTGTTACATTGAGCTT; the letters are possibly those of the target site; listed as Homo sapiens)
colonies in clonogenic growth assay after shRNA treatment (A375 melanoma cells [1]): far fewer colonies
colonies in clonogenic growth assay, cells expressing SMAD1 phosphomimic (SMAD1DVD) (A375 melanoma cells [1]): partially restored
colonies in clonogenic growth assay, empty vector-transfected cells (A375 melanoma cells [1]): few colonies formed
GDF6 protein expression after shRNA treatment (GDF6): partially inhibited GDF6 protein expression; also recorded: knockdown of GDF6 protein; also recorded: diminishes expression of GDF6 protein
tumor formation (tumor volume) of shRNA-treated cells xenotransplanted into mice (A375 melanoma cells [3]): tumors intermediate between the control-treated (shEGFP) cells and the shGDF6#2-treated cells; also recorded: tumor volumes in xenografts decrease with the degree of GDF6 knockdown
xenograft tumor formation, SMAD1 phosphomimic cells (A375 melanoma cells [3]): tumor formation accelerated after day 15
xenograft tumor formation, empty vector-transfected cells (A375 melanoma cells [3]): only small tumors formed
apoptosis (Annexin5 staining, Caspase 3/7 cleavage) (A375 melanoma cells [2]): elevated apoptosis relative to control cells

shSMAD1-1: shRNA targeting SMAD1 (SEQ ID NO:4); SMAD1.1 TRCN0000021781 targets SEQ ID NO:12 (CGGTTGCTTATGAGGAACCAA; the letters are possibly those of the target site; listed as Homo sapiens)
colonies in clonogenic growth assay after shRNA treatment (A375 melanoma cells [1]): far fewer colonies
SMAD1 protein expression after shRNA treatment (SMAD1): knockdown of SMAD1 protein
SMAD1 protein expression after shRNA treatment (SMAD1; listed as shSMAD1#1): significantly decreased; also recorded: decreases expression of SMAD1 protein
tumor formation (tumor volume) of shRNA-treated cells xenotransplanted into mice (A375 melanoma cells [3]): formed only very small tumors; also recorded: tumor volumes in xenografts decrease
apoptosis (Annexin5 staining, Caspase 3/7 cleavage) (A375 melanoma cells [2]): elevated apoptosis relative to control cells

shGDF6#2: shRNA targeting GDF6 (SEQ ID NO:2); GDF6.2 TRCN0000140097 targets SEQ ID NO:11 (GTGTCCATGCTCTCAGACAAA; the letters are possibly those of the target site; listed as Homo sapiens)
colonies in clonogenic growth assay after shRNA treatment (A375 melanoma cells [1]): far fewer colonies
colonies in clonogenic growth assay, cells expressing SMAD1 phosphomimic (SMAD1DVD) (A375 melanoma cells [1]): partially restored
colonies in clonogenic growth assay, empty vector-transfected cells (A375 melanoma cells [1]): few colonies formed
GDF6 protein expression after shRNA treatment (GDF6): more effective than shGDF6#1; also recorded: knockdown of GDF6 protein; also recorded: diminishes expression of GDF6 protein
tumor formation (tumor volume) of shRNA-treated cells xenotransplanted into mice (A375 melanoma cells [3]): very little tumor formation; also recorded: formed tumors more slowly than control cells; also recorded: tumor volumes in xenografts decrease with the degree of GDF6 knockdown
xenograft tumor formation, SMAD1 phosphomimic cells (A375 melanoma cells [3]): tumor formation accelerated after day 15
xenograft tumor formation, empty vector-transfected cells (A375 melanoma cells [3]): only small tumors formed
apoptosis (Annexin5 staining, Caspase 3/7 cleavage) (A375 melanoma cells [2]): elevated apoptosis relative to control cells

B1: recombinant GDF6 protein: recombinant GDF6 protein added to culture media (protein, UniProt Q6KF10 336-455, looked up)
Growth/differentiation factor …: TAFASRHGKRHGKKSRLRCSKKPLHVNFKELGWDDWIIAPLEYEAYHCEGVCDFPLRSHLEPTNHAIIQTLMNSMDPGSTPPSCCVPTKLTPISILYIDAGNNVVYKQYEDMVVESCGCR
proliferation/survival of GDF6-knockdown melanoma cells with recombinant GDF6 added to media (MeWo melanoma cells): rescued the melanoma cells from undergoing GDF6 shRNA-induced apoptosis; also recorded: proliferation of GDF6-knockdown cells was restored
proliferation/survival of GDF6-knockdown melanoma cells with recombinant GDF6 added to media (MeWo melanoma cells; listed as recombinant GDF6): able to sustain their proliferation
